Data as given in US20090312282A1, “Novel Low Molecular Weight Hyaluronic Acid and/or Salt Thereof, and Cosmetic Preparation, Pharmaceutical Composition, and Food Composition Each Using Same” (Q. P. Corporation, priority 2006, published 2009).

System: hairless mice (Hos: HR-1)
Settings: mouse, in vivo
From the text: In this test example, the low-molecular-weight hyaluronic acid according to the invention was percutaneously administered to a mouse to evaluate the percutaneous absorbability of the low-molecular-weight hyaluronic acid. Six-week-old (when the test was started) male hairless mice (Hos: HR-1) (purchased from Japan SLC Inc.) […] Specifically, the hyaluronic acid was labeled with a fluorescent substance by allowing a carboxylic acid group of the hyaluronic acid to react with DMEQ-hydrazide. […] The HPLC analysis conditions were as follows. • Analyzer: Waters 2690 470 • Column: Shodex suger KS807 (gel filtration column) • Column temperature: 40° C. • Flow rate: 0.5 mL/min • Injection amount: 20 microliters • Mobile phase: 0.003 mol/L phosphoric acid buffer containing 0.15 mol/L sodium chloride • Fluorescence analysis conditions: excitation wavelength: 365 nm, fluorescence wavelength: 447 nm […] It is considered that the peak was also detected in the test group 3 due to a fluorescent substance (e.g., vitamin, aromatic amino acid, and cholesterol) originally contained in the living body. […] The STD solution was analyzed by HPLC to determine the peak area.

Substance | fluorescence intensity (peak) in the skin compared with control group (test group 3) | amount of percutaneous absorption of hyaluronic acid (increase in hyaluronic acid per g of skin)
hyaluronic acid [Sample 2] | no significant difference | 
low-molecular-weight hyaluronic acid [Example 2] |  | increased with time when the sample attachment time was 1 to 3 hours, and almost reached equilibrium when the sample attachment time was 3 to 5 hours
